According to patent US20250109127A1, “METHODS OF USE OF PHENOXYPROPYLAMINE COMPOUNDS TO TREAT DEPRESSION” (Minerva Neurosciences, Inc., priority 2013, published 2025):
Several values for one entry are separate records, joined by “and”; a condition that tells them apart may be missing. Equal entries are not always repeated.

Test system: 5-HIAA release in the rat prefrontal cortex
Assay: Microdialysis: 5-HIAA release in prefrontal cortex after I.P. administration
Format: in vivo
Details: for 5-HIAA in dialysate, MEAN / 5-HIAA in dialysate, individual animals: Citalopram 10 mg/kg I.P.
Procedure: The aim of the study was to evaluate, using microdialysis, the effects of an intraperitoneal (I.P.) administration in rats of three different doses of SON-117 on dopamine and its metabolites, serotonin and its metabolite (5-HIAA), and norepinephrine levels in prefrontal cortex.
Thirty-two adult male Wistar rats were used for the whole study (4 groups of eight animals planned for the study, Table 1).
Surgery was performed on rats weighing about 300 g at the beginning of the experiments. Rats were anaesthetized with Ketamine (50 mg/kg) & Xylazine (15 mg/kg) by intramuscular administration. The animals were placed in a stereotaxic apparatus in the flat-skull position at a constant setting of −3.3 mm between ear bars and the incisor bar. The animals were treated with a local anesthesic (xylocaine 1%, Astra Zeneca) and an analgesic (Temgesic, from Schering Plough, 0.05 mg/kg, s.c.). A rostrocaudal midline incision was made with a lancet to expose the dorsal skull surface. The “stereotaxic zero” was defined by the Bregma in accordance with Paxinos and Watson's atlas (1986). A hole was drilled in the skull with a drill and the meninges were pierced with a sterile needle to implant a CMA12 guide cannula which later received the dialysis probe.
Coordinates used for implanting guide cannula in prefrontal cortex from Bregma were anteroposterior 3.7 mm, mediolateral 0.8 mm, and dorsoventral −2 mm (top of the probe was at −5 mm). The guide cannula was fixed to the skull with two stainless steel screws (1.88 mm outside diameter) anchored. An application of dental cement was added. A plastic collar allowed each animal to be tethered to a Swivel assembly of the CMA 120 awake animal system. Following surgery, rats were kept in individual cages and allowed to recover for a minimum of 3-5 days before the experimentation. The rats were handled and put in plastic bowl for 10 min at least every day to habituate the animals to their new environment for the dialysis. An I.P. administration with saline was also performed every day.
Dialysis probes (CMA12/3 mm, membrane, 20 kD cut-off, Carnegie Medicine, Stockholm, Sweden), were carefully washed before inserting into the guide cannula. The wash was performed with the artificial cerebrospinal fluid (aCSF) medium (NaCl 147 mM, KCl 2.7 mM, CaCl2 1.2 mM, MgCl2 0.85 mM) at room temperature. The dialysis system was then equilibrated at 20° C. at a perfusion rate of 1 μl/min with a Carnegie pump (CMA100). All catheters (FEP tubing, internal volume of 1.2 μl/10 cm, and tubing adaptors) used for microdialysis were treated in the same conditions.
The probes duly prepared were inserted into the guide cannula and the CMA120 Swivel assembly secured to the animal using a plastic collar. Flow through the dialysis probe with aCSF was maintained at a rate of 1 μl/min during the whole experimentation. The first four fractions (corresponding to 2 hours) were discarded to avoid the effects of parenchymal disturbance and to ensure that an approximate steady-state level was reached. Fractions were then collected over a period of 8.5 h during which time the animals remained quiet. The dialysates were automatically collected with an autosampler (microfraction collector CMA 140, Carnegie Medicin) and stored at −80° C. until analysis. […] Perfusion was then maintained for 7 hours with aCSF. The dialysates (30 μl) were collected into 300 μl vials, transferred into dry ice and then kept frozen (−80° C.) until analysis. Frozen samples were shipped to a partner for analysis. At the end of the microdialysis study, a PBS with colored ink was perfused through the probe in order to visualize the dialyzed area.
Catecholamine assay: Concentrations of dopamine, DOPAC, HVA, 5-HIAA, 5-HT, and norepinephrin were determined for each sample by HPLC coupled with electrochemical detection.

With CN(C)CCCC1(c2ccc(F)cc2)OCc2cc(C#N)ccc21 (stereo not drawn) [Citalopram, citalopram, reference compound] the “5-HIAA in dialysate, MEAN” value (T30-T1 h) was 112.98 % of respective basal, the “5-HIAA in dialysate, individual animals” value (T30-T1 h) was 108.67 % of respective basal and 107.01 % of respective basal and 121.99 % of respective basal and 141.67 % of respective basal and 110.50 % of respective basal and 102.40 % of respective basal and 95.39 % of respective basal and 116.20 % of respective basal and the “5-HIAA in dialysate, MEAN” value (T1 h 30-T2 h) was 89.03 % of respective basal. For the same compound, the “5-HIAA in dialysate, individual animals” value (T1 h 30-T2 h) was 79.21 % of respective basal and 80.54 % of respective basal and 115.42 % of respective basal and 91.93 % of respective basal and 89.59 % of respective basal and 74.91 % of respective basal and 97.01 % of respective basal and 83.65 % of respective basal, the “5-HIAA in dialysate, MEAN” value (T1 h-T1 h 30) was 101.94 % of respective basal and the “5-HIAA in dialysate, individual animals” value (T1 h-T1 h 30) was 100.18 % of respective basal and 85.46 % of respective basal and 131.13 % of respective basal and 121.97 % of respective basal and 98.30 % of respective basal and 88.97 % of respective basal and 88.75 % of respective basal and 100.76 % of respective basal. For the same compound, the “5-HIAA in dialysate, MEAN” value (T2 h 30-T3 h) was 72.04 % of respective basal, the “5-HIAA in dialysate, individual animals” value (T2 h 30-T3 h) was 51.39 % of respective basal and 53.65 % of respective basal and 94.55 % of respective basal and 76.96 % of respective basal and 86.07 % of respective basal and 61.11 % of respective basal and 78.96 % of respective basal and 73.66 % of respective basal and the “5-HIAA in dialysate, MEAN” value (T2 h-T2 h 30) was 82.39 % of respective basal. The “5-HIAA in dialysate, individual animals” value (T2 h-T2 h 30) was 86.10 % of respective basal and 66.06 % of respective basal and 115.98 % of respective basal and 81.96 % of respective basal and 87.60 % of respective basal and 62.15 % of respective basal and 79.47 % of respective basal and 79.79 % of respective basal, the “5-HIAA in dialysate, MEAN” value (T3 h 30-T4 h) was 74.61 % of respective basal and the “5-HIAA in dialysate, individual animals” value (T3 h 30-T4 h) was 73.28 % of respective basal and 61.52 % of respective basal and 99.49 % of respective basal and 73.39 % of respective basal and 75.64 % of respective basal and 59.18 % of respective basal and 77.94 % of respective basal and 76.45 % of respective basal. The “5-HIAA in dialysate, MEAN” value (T3 h-T3 h 30) was 73.07 % of respective basal, the “5-HIAA in dialysate, individual animals” value (T3 h-T3 h 30) was 74.34 % of respective basal and 48.79 % of respective basal and 107.40 % of respective basal and 68.89 % of respective basal and 77.21 % of respective basal and 56.57 % of respective basal and 77.95 % of respective basal and 73.43 % of respective basal and the “5-HIAA in dialysate, MEAN” value (T4 h 30-T5 h) was 71.07 % of respective basal. The “5-HIAA in dialysate, individual animals” value (T4 h 30-T5 h) was 75.13 % of respective basal and 59.79 % of respective basal and 90.52 % of respective basal and 59.71 % of respective basal and 66.71 % of respective basal and 59.77 % of respective basal and 77.37 % of respective basal and 79.55 % of respective basal, the “5-HIAA in dialysate, MEAN” value (T4 h-T4 h 30) was 73.18 % of respective basal and the “5-HIAA in dialysate, individual animals” value (T4 h-T4 h 30) was 72.77 % of respective basal and 52.24 % of respective basal and 97.15 % of respective basal and 67.66 % of respective basal and 75.69 % of respective basal and 64.72 % of respective basal and 80.07 % of respective basal and 75.12 % of respective basal. The “5-HIAA in dialysate, MEAN” value (T5 h 30-T6 h) was 68.38 % of respective basal, the “5-HIAA in dialysate, individual animals” value (T5 h 30-T6 h) was 55.76 % of respective basal and 56.52 % of respective basal and 86.58 % of respective basal and 66.99 % of respective basal and 65.74 % of respective basal and 68.20 % of respective basal and 71.48 % of respective basal and 75.45 % of respective basal and the “5-HIAA in dialysate, MEAN” value (T5 h-T5 h 30) was 69.50 % of respective basal. The “5-HIAA in dialysate, individual animals” value (T5 h-T5 h 30) was 50.96 % of respective basal and 91.09 % of respective basal and 61.61 % of respective basal and 64.79 % of respective basal and 60.00 % of respective basal and 84.10 % of respective basal and 73.94 % of respective basal, the “5-HIAA in dialysate, MEAN” value (T6 h 30-T7 h) was 67.44 % of respective basal and the “5-HIAA in dialysate, individual animals” value (T6 h 30-T7 h) was 61.13 % of respective basal and 52.63 % of respective basal and 87.81 % of respective basal and 64.43 % of respective basal and 57.20 % of respective basal. For the same compound, the “5-HIAA in dialysate, MEAN” value (T6 h-T6 h 30) was 63.81 % of respective basal, the “5-HIAA in dialysate, individual animals” value (T6 h-T6 h 30) was 60.01 % of respective basal and 53.66 % of respective basal and 90.97 % of respective basal and 62.02 % of respective basal and 55.94 % of respective basal and 67.93 % of respective basal and 47.86 % of respective basal and 72.09 % of respective basal and the “5-HIAA in dialysate, MEAN” value (T-30 min-T0 (pre-dose)) was 102.91 % of respective basal. The “5-HIAA in dialysate, MEAN” value (T-1 h 30-T-1 h (pre-dose)) was 97.47 % of respective basal, the “5-HIAA in dialysate, MEAN” value (T-1 h-T-30 min (pre-dose)) was 98.99 % of respective basal and the “5-HIAA concentration in prefrontal cortex, significant slight increase” value (citalopram 10 mg/kg IP, at 0.5 h and 1 h) was 113%.
